Here are results for 3 compounds from US20080051401A1, “2,4,6-Trisubstituted Pyrimidines as Phosphotidylinositol (Pi) 3-Kinase Inhibitors and Their Use in the Treatment of Cancer” (priority 2004, published 2008).

In assay [1] the test system is MDA-MB-468 human breast adenocarcinoma cell line. The experiment in a line: In vitro MDA-MB-468 human breast adenocarcinoma proliferation assay, Test (c). It counts as cell-based. As to conditions: BrdU incorporation, 48 hours incubation, read-out: IC50, inhibition of MDA-MB-468 cell growth. The text has this: (c) In Vitro MDA-MB-468 Human Breast Adenocarcinoma Proliferation Assay
This assay determines the ability of test compounds to inhibit cell proliferation as assessed using Cellomics Arrayscan technology. A MDA-MB-468 human breast adenocarcinoma cell line (LGC Promochem, Catalogue No. HTB-132) was routinely maintained as described in Biological Assay (b) hereinbefore.
For the proliferation assay, the cells were detached from the culture flask using Accutase and seeded into the inner 60 wells of a black Packard 96 well plate at a density of 8000 cells per well in 100 μl of complete growth media. The outer wells contained 100 μl of sterile PBS. The cells were incubated overnight at 37° C. with 5% CO2 to allow them to adhere.
On day 2, the cells were treated with test compounds and incubated for 48 hours at 37° C. with 5% CO2. […]
BrdU incorporation was detected by incubation for 1 hour at ambient temperature with mouse anti-BrdU antibody (50 μl; Caltag, Burlingame, Calif., US; Catalogue No. MD5200) that was diluted 1:40 in PBS containing 1% BSA and 0.05% Tween-20. […] Subsequently, PBS (100 μl) was added to each well and the plates were analysed using a Cellomics array scan to assess total cell number and number of BrdU positive cells.
Fluorescence dose response data obtained with each compound were analysed and the degree of inhibition of MDA-MB-468 cell growth was expressed as an IC50 value.
(In general: Dividing cells build labelled thymidine or BrdU into new DNA.)

The subject of assay [2] is phosphorylation of Serine 473 in Akt in MDA-MB-468 human breast adenocarcinoma cell line. Nature of the assay: In vitro phospho-Ser473 Akt assay, Test (b). Type of assay: cell-based. As to conditions: MDA-MB-468 cells, 2 hours incubation, read-out: IC50, inhibition of phosphorylation of Serine 473 in Akt. The procedure: (b) In Vitro Phospho-Ser473 Akt Assay
This assay determines the ability of test compounds to inhibit phosphorylation of Serine 473 in Akt as assessed using Acumen Explorer technology (Acumen Bioscience Limited), a plate reader that can be used to rapidly quantitate features of images generated by laser-scanning.
A MDA-MB-468 human breast adenocarcinoma cell line (LGC Promochem, Teddington, Middlesex, UK, Catalogue No. HTB-132) was routinely maintained at 37° C. with 5% CO2 up to a confluency of 70-90% in Dulbecco's modified Eagle's growth medium (DMEM; Invitrogen Limited, Paisley, UK Catalogue No. 41966-029) containing 10% heat-inactivated foetal calf serum (FCS; Sigma, Poole, Dorset, UK, Catalogue No. F0392) and 1% L-glutamine (Gibco, Catalogue No. 25030-024).
For the assay, the cells were detached from the culture flask using ‘Accutase’ (Innovative Cell Technologies Inc., San Diego, Calif., USA; Catalogue No. AT104) using standard tissue culture methods and resuspended in media to give 1.7×10^5 cells per ml. Aliquots (90 μl) were seeded into each of the inner 60 wells of a black Packard 96 well plate (PerkinElmer, Boston, Mass., USA; Catalogue No. 6005182) to give a density of ˜15000 cells per well. Aliquots (90 μl) of culture media were placed in the outer wells to prevent edge effects. The cells were incubated overnight at 37° C. with 5% CO2 to allow them to adhere.
On day 2, the cells were treated with test compounds and incubated for 2 hours at 37° C. with 5% CO2. Test compounds were prepared as 10mM stock solutions in DMSO and serially diluted as required with growth media to give a range of concentrations that were 10-fold the required final test concentrations. Aliquots (10 μl) of each compound dilution were placed in a well (in triplicate) to give the final required concentrations. […]
All subsequent aspiration and wash steps were carried out using a Tecan 96 well plate washer (aspiration speed 10 mm/sec). […] An aliquot of PBS (50 μl) was added to each well and the plates were sealed with black plate sealers and the fluorescence signal was detected and analysed. […]

For the next assay, the target named is T1, p110α Type Ia human PI3K (Homo sapiens, UniProt P42336).
T1 construct: full length DNA of each of the p110α, p110β and p110δ Type Ia human PI3K p110 isoforms; 6-His; made in house
T1 sequence (P42336 whole entry, canonical isoform): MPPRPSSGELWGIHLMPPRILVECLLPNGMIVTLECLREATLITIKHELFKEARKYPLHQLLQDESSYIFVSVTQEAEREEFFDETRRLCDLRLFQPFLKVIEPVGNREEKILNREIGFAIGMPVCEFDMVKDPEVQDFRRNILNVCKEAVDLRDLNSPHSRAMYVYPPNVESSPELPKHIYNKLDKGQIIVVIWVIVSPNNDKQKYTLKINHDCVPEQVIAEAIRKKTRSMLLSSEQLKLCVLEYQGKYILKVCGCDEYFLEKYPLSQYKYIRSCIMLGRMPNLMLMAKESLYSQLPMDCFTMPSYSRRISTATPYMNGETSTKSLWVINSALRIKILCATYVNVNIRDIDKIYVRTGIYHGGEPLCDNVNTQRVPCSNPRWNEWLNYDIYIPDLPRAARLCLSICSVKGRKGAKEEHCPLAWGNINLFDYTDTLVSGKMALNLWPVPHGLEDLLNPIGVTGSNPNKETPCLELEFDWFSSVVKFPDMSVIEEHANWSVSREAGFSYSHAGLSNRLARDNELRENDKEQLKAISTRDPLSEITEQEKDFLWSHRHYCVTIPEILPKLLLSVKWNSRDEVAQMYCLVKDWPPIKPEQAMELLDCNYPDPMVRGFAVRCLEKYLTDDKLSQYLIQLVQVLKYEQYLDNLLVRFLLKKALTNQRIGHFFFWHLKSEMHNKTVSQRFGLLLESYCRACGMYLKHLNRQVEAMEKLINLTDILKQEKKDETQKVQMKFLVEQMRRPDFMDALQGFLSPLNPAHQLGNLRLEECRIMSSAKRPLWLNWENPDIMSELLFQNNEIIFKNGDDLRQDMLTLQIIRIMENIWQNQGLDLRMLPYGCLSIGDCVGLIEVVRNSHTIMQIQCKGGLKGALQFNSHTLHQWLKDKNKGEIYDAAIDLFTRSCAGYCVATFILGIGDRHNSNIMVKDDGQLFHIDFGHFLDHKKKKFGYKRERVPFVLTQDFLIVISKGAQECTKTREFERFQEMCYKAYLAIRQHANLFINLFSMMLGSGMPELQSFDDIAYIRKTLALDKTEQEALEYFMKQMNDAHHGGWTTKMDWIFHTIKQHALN
T1 sequence (P27986 whole entry partner, canonical isoform): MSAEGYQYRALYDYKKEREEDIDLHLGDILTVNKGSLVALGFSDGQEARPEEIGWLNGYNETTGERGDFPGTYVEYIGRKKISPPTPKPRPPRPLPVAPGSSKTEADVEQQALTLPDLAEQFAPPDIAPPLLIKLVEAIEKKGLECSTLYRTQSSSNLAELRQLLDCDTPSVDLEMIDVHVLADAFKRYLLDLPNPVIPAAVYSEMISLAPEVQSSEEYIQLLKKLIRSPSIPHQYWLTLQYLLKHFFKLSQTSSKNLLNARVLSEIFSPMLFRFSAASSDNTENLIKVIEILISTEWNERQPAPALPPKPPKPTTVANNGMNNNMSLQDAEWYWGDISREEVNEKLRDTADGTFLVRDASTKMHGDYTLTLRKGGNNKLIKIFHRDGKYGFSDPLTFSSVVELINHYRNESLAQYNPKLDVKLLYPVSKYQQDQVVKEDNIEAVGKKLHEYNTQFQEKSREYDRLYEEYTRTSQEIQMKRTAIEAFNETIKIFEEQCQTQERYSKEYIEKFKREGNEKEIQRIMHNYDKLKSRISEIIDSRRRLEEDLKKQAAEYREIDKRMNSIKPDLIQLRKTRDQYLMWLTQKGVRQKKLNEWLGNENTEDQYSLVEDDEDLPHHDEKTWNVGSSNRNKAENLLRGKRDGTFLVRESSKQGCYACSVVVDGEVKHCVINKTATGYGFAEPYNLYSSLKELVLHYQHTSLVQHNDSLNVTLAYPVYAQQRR
The experiment in a line: In vitro enzyme assay (AlphaScreen), Test (a). Type of assay: biochemical. As to conditions: recombinant enzyme, PI(4,5)P2 substrate, ATP 4 μM, read-out: IC50 versus p110α Type Ia human PI3K. An excerpt:
(a) In Vitro Enzyme Assay
The assay used AlphaScreen technology (Gray et al., Analytical Biochemistry, 2003, 313: 234-245) to determine the ability of test compounds to inhibit phosphorylation by recombinant Type I PI3K enzymes of the lipid PI(4,5)P2.
DNA fragments encoding human PI3K catalytic and regulatory subunits were isolated from cDNA libraries using standard molecular biology and PCR cloning techniques. The selected DNA fragments were used to generate baculovirus expression vectors. In particular, full length DNA of each of the p110α, p110β and p110δ Type Ia human PI3K p110 isoforms (EMBL Accession Nos. HSU79143, S67334, Y10055 for p110α, p110β and p110δ respectively) were sub-cloned into a pDEST10 vector (Invitrogen Limited, Fountain drive, Paisley, UK). The vector is a Gateway-adapted version of Fastbac1 containing a 6-His epitope tag. A truncated form of Type Ib human PI3K p110γ isoform corresponding to amino acid residues 144-1102 (EMBL Accession No. X8336A) and the full length human p85α regulatory subunit (EMBL Accession No. HSP13KIN) were also sub-cloned into pFastBac1 vector containing a 6-His epitope tag. The Type Ia p110 constructs were co-expressed with the p85α regulatory subunit. Following expression in the baculovirus system using standard baculovirus expression techniques, expressed proteins were purified using the His epitope tag using standard purification techniques.
DNA corresponding to amino acids 263 to 380 of human Grp1 PH domain was isolated from a cDNA library using standard molecular biology and PCR cloning techniques. […]
Biotinylated-DiC8-PI(3,4,5)P3 (50 nM; Cell Signals Inc., Catalogue No. 107), recombinant purified GST-Grp1 PH protein (2.5 nM) and AlphaScreen Anti-GST donor and acceptor beads (100 ng; Packard Bioscience Limited, Station Road, Pangbourne, Berkshire, UK, Catalogue No. 6760603M) were added and the assay plates were left for about 5 to 20 hours at ambient temperature in the dark. The resultant signals arising from laser light excitation at 680 nm were read using a Packard AlphaQuest instrument. […]

`O=C(Nc1cccc(-c2cc(N3CCOCC3)nc(-c3cccc(CO)c3)n2)c1)C1CCNCC1` [Example 1, 2-(3-hydroxymethylphenyl)-6-morpholino-4-(3-piperidin-4-ylcarbonylaminophenyl)pyrimidine]: the IC50 in assay [1] was around 8000 nM; in assay [2], around 5000 nM; at p110α Type Ia human PI3K, around 100 nM.

Turning to `O=C(Nc1cccc(-c2cc(N3CCOCC3)nc(-c3cccc(O)c3)n2)c1)C1CCCNC1` (stereo not shown) [Example 6, 2-(3-hydroxyphenyl)-6-morpholino-4-(3-piperidin-3-ylcarbonylaminophenyl)pyrimidine], the concentration for half-maximal inhibition (IC50) in assay [2] was around 300 nM; on p110α Type Ia human PI3K it was around 100 nM.

Turning to `O=C(Nc1cccc(-c2cc(N3CCOCC3)nc(-c3cccc(CO)c3)n2)c1)N1CCNCC1` [Example 10, 2-(3-hydroxymethylphenyl)-6-morpholino-4-(3-piperazin-1-ylcarbonylaminophenyl)pyrimidine], the IC50 in assay [2] was around 500 nM; on p110α Type Ia human PI3K it was around 300 nM.

For orientation: IC50 means the concentration at which inhibition is half-maximal.
